Results published in patent publication US20260151518A1, “LEUKOCYTE-SPECIFIC CELL PENETRATING MOLECULES” (Amytrx Therapeutics, Inc., priority 2021, published 2026).

Experiments:
[1] = Concentrations of radioactivity in whole blood, plasma, WBC depleted blood and recovered white blood cells after single subcutaneous administration of [3H]-AMTX-100; type: in vivo, rat; design: key to Concentration of radioactivity in Recovered White Blood Cells: BLQ: Below limit of accurate quantification; conditions: 5 mg/kg; for Concentration of radioactivity in WBC depleted blood / Concentration of radioactivity in Whole Blood / Concentration of radioactivity in Plasma / Concentration of radioactivity in Recovered White Blood Cells: rat; for Concentration of radioactivity in Plasma: plasma not depleted of white blood cells; for Concentration of radioactivity in Recovered White Blood Cells: reverse wash of filters; for Cmax, total radioactivity: male non-pigmented rats
Method: [^3H]-NSP labelling. For the main phase of the study, the test protein was prepared, radiolabeled with N-succinimidyl-[2,3-3H]-propionate ([^3H]-NSP) and purified as described below.
Three aliquots of 1.6 mL [^3H]-NSP solution were dispensed into appropriate vials. The solvent was evaporated under a gentle stream of nitrogen gas at ambient temperature. Once enough of the solvent had been evaporated, the three aliquots were combined into one vial and the remaining solvent evaporated until dryness. The residue in the vial was re-suspended in 0.6 mL of 1 mg/mL AMTX-100 by gently vortex mixing to ensure complete mixing of the protein with the labelling reagent. The solutions were allowed to stand at ambient temperature for approximately 1 hour.
The [^3H]-NSP-protein solutions were then purified by reverse phase chromatography techniques and the resulting solution was frozen and lyophilized using a freeze drier. The resulting material was dissolved in 2 mL ethanol:water (50:50) and stored at approximately −20° C. prior to formulation for dose preparation.
Formulation. The required quantities of each radiolabeled test item were combined with the corresponding non-labelled test item as appropriate to achieve a radioactive concentration sufficient to meet the aims of the study. Dose solutions were prepared in PBS buffer pH 7.4, with the intention of administering a total dose volume of […], (2.5 ml/kg, […]).
Whole blood was collected into tubes containing K2-EDTA as anticoagulant. Following collection, an aliquot of whole blood (approximately 4 mL) was retained for analysis of whole blood and white blood cell (WBC) concentrations. The remaining whole blood samples were processed to plasma. Plasma samples were not depleted of white blood cells.
(§1) AMTX-100 was radiolabeled with 3H at lysine residues and injected into Sprague-Dawley rats in a single dose by seven different routes (intravenous, subcutaneous, topical [skin], intratracheal, intraduodenal, esophageal, and oral). The rats were evaluated at various time points, up to 120 hours, by: a) blood samples were taken for pharmacokinetics (PK) by cardiac puncture; b) rats were frozen and sectioned for QWBA and/or micro-auto-radiography and histology; and c) frozen sections were made and freeze dried and exposed to phosphor-storage imaging plates and tissue radioactivity in images was quantified as tissue: blood ratios.
(§2) For all PK studies, the following definitions were used: WB=whole blood; Plasma=whole blood depleted of red blood cells; WBCD=whole blood depleted of white blood cells in which the whole blood is passed over a Pall Acrodisc filter (about 60% efficient); WBCs=the cells which bind to, and are washed off, the Pall Acrodisc filter.

[2] = Pharmacokinetics of [3H]-AMTX-100 after multiple routes of administration; type: in vivo, rat; conditions: rat
Method: as §1, §2

In the case of `CSCC[C@@H]1NC(=O)[C@H](CC(C)C)NC(=O)[C@H](CCCCN)NC(=O)[C@H](CCC(N)=O)CC(=O)[C@H](CCCNC(=N)N)NC(=O)[C@H](CCCCN)NC(=O)[C@H](CCCNC(=N)N)NC(=O)[C@H](CCC(N)=O)NC(=O)[C@H](C(C)C)NC(=O)[C@@H](NC(=O)[C@@H]2CCCN2C(=O)[C@H](C)NC(=O)[C@H](CC(C)C)NC(=O)[C@H](CC(C)C)NC(=O)[C@H](C)NC(=O)[C@H](CC(C)C)NC(=O)[C@H](CC(C)C)NC(=O)[C@@H](NC(=O)[C@H](C)NC(=O)[C@@H]2CCCN2C(=O)[C@H](CC(C)C)NC(=O)[C@H](CC(C)C)NC(=O)[C@H](C)NC(=O)[C@@H](NC(=O)[C@H](C)NC(=O)[C@H](C)N)C(C)C)C(C)C)CSSC[C@@H](C(=O)O)NC(=O)[C@@H]2CCCN2C1=O` [[^3H]-AMTX-100], the “Concentration of radioactivity in WBC depleted blood” value ([1]; 1 h) is reported as 0.015 μg equivalents/mL, the “Concentration of radioactivity in Whole Blood” value (shortened to “Concentration … in Whole Blood”) ([1]; 1 h) is reported as 0.081 μg equivalents/mL and the “Concentration of radioactivity in Plasma” value ([1]; 1 h) is reported as 0.110 μg equivalents/mL. The “Concentration of radioactivity in Recovered White Blood Cells” value ([1]; 1 h) was “BLQ”, the “Concentration of radioactivity in WBC depleted blood” value ([1]; 2 h) was 0.011 μg equivalents/mL and the “Concentration … in Whole Blood” value ([1]; 2 h) was 0.059^3 μg equivalents/mL. The “Concentration of radioactivity in Plasma” value ([1]; 2 h) was 0.084 μg equivalents/mL, the “Concentration of radioactivity in Recovered White Blood Cells” value ([1]; 2 h) was “BLQ” and the “Concentration of radioactivity in WBC depleted blood” value ([1]; 4 h) was 0.011 μg equivalents/mL. For the same compound, the “Concentration … in Whole Blood” value ([1]; 4 h) was 0.054 μg equivalents/mL, the “Concentration of radioactivity in Plasma” value ([1]; 4 h) was 0.068 μg equivalents/mL and the “Concentration of radioactivity in Recovered White Blood Cells” value ([1]; 4 h) was “BLQ”. The “Concentration of radioactivity in WBC depleted blood” value ([1]; 8 h) was 0.011 μg equivalents/mL, the “Concentration … in Whole Blood” value ([1]; 8 h) was 0.070 μg equivalents/mL and the “Concentration of radioactivity in Plasma” value ([1]; 8 h) was 0.090 μg equivalents/mL. For the same compound, the “Concentration of radioactivity in Recovered White Blood Cells” value ([1]; 8 h) was “BLQ”, the Concentration of radioactivity in WBC depleted blood ([1]; 24 h) was 0.021 μg equivalents/mL and the “Concentration … in Whole Blood” value ([1]; 24 h) was 0.120 μg equivalents/mL. For the same compound, the “Concentration of radioactivity in Plasma” value ([1]; 24 h) was 0.146 μg equivalents/mL, the “Concentration of radioactivity in Recovered White Blood Cells” value ([1]; 24 h) was “BLQ” and the “Concentration of radioactivity in WBC depleted blood” value ([1]; 48 h) was 0.033 μg equivalents/mL. The “Concentration … in Whole Blood” value ([1]; 48 h) was 0.186 μg equivalents/mL, the “Concentration of radioactivity in Plasma” value ([1]; 48 h) was 0.221 μg equivalents/mL and the “Concentration of radioactivity in Recovered White Blood Cells” value ([1]; 48 h) was “BLQ”. The “Cmax, total radioactivity” value ([1]; Plasma) was 0.221 µg/mL, the “Cmax, total radioactivity” value ([1]; WBCD blood) was 0.033 µg/mL and the “Cmax, total radioactivity” value ([1]; Whole blood) was 0.186 µg/mL. For the same compound, the “Specific target cells in blood” value [2] was “WBCs and not RBCs are the specific target”, the “Residence time in plasma” value ([2]; Sub-Q, single dose) was over 672 h and the Presence in tissue ([2]; after a single dose) was “found in tissue in which WBCs congregate, but not cardiac or skeletal muscle tissue”. For the same compound, the “Entry into the bloodstream” value ([2]; all routes of administration) was “by all routes of administration makes its way into the bloodstream” and the Resistance to degradation ([2]; esophageal administration, L-amino acid version) was “resistant to degradation”.
